Data on 6 sequences can be found in publication PMC13588620, “Linear antibody epitope prediction using AlphaFold2” (eLife, 2026).

“Also recorded” adds a separate entry of the source.

For this assay, the system named is mBG17 binding to SARS-CoV-2 nucleocapsid protein. Description: Alanine-scan peptide competition ELISA with serial peptide dilution. Further details: species or system mouse. The settings on record: 4-fold serial dilution of peptide from 40 μg to ~2.5 ng; absorbance at 450 nm; n=3; percentage of binding from no-peptide control. A general note: An ELISA detects its analyte on a solid surface through an enzyme-linked reagent.
In the case of ADFSKQLQQS [D1A], the “competition of mBG17 binding to nucleocapsid protein by alanine mutant peptides, compared with the WT peptide” value (“competition … compared with the WT peptide” below) is listed as “no change in competition; also recorded: less disruptive to binding”.

For DDASKQLQQS [F3A], the “competition … compared with the WT peptide” value is reported as “strong reductions in competition”.

Take DDFSKALQQS [Q6A]: the “competition … compared with the WT peptide” value was “minor reductions in competition; also recorded: less disruptive to binding”.

Consider DDFSKQAQQS [L7A], for which the “competition … compared with the WT peptide” value was “strong reductions in competition”.

Regarding DDFSKQLAQS [Q8A], the “competition … compared with the WT peptide” value is on record as “strong reductions in competition”.

For the sequence DDFSKQLQQS [a.a. 401–410], the “competition … compared with the WT peptide” value is “strong competition”.
